The structures appear in SMILES notation. “And” between values parts separate entries of the source, which are not always exact repeats. Equal entries are not always repeated.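 Five concentrations, 48 hours, 96-well plates. GI50 is the concentration that inhibits growth by half. At the TGI there is no net growth.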 Some results are limits rather than exact numbers.

TGI and GI50 data for 24 compounds are collected here from PubChem BioAssay (NCI).

Holding throughout (experiment): DTP human tumour cell line panel, 48 h
Assay [1] concerns CAKI-1 renal.
The subject of assay [2] is M14 melanoma.
The test system of assay [3] is OVCAR-3 ovarian.
Assay [4] has as its system RPMI-8226 leukemia.
The subject of assay [5] is SF-295 CNS.
The subject of assay [6] is SF-539 CNS.
The test system of assay [7] is SK-MEL-2 melanoma.
The subject of assay [8] is SK-OV-3 ovarian.
Assay [9] relates to SNB-19 CNS.
Assay [10] deals with SNB-75 CNS.

Regarding `CCn1c2c(c3ccccc31)[C@@H](c1ccc(Cl)cc1)CC1C(=O)N(c3ccccc3)C(=O)C21` (stereo not given in full), the TGI (in general, the concentration at which net growth stops) in [1] is greater than 100 µM; in assay [2], greater than 100 µM; in assay [3], greater than 100 µM; in assay [4], greater than 100 µM; in assay [5], greater than 100 µM; in assay [6], 97.1 µM. Also, the TGI in [7], in assay [8], in assay [9] and in assay [10] was greater than 100 µM throughout.

For `Cc1cccc(C)c1N1C(=O)C(=O)C(c2nc3ccccc3s2)/C(=N/NC(=O)c2ccccc2O)C1=O` (stereo not given), the TGI in assay [1] was greater than 29.8 µM; in assay [2] it was greater than 100 µM; in assay [3] it was greater than 100 µM; in assay [4], greater than 69.2 µM; in assay [5], greater than 100 µM; in [6] it was 59.5 µM. Also, the TGI was greater than 100 µM in [7], greater than 100 µM in [8], greater than 79.8 µM in [9] and 69.5 µM in assay [10].

With `COc1ccc(/C=C2\SC(=Nc3ccccc3)NC2=O)cc1`, the GI50 (usually the concentration giving 50% growth inhibition) in assay [1] is 3.98 µM; in assay [3], 3.67 µM; in assay [4] it was 5.38 µM; in assay [5] it was 4.6 µM; in [6], 3.6 µM; in assay [7], 29.3 µM. Besides, the GI50 in [8] is 12.6 µM; in assay [9], 6.34 µM; in [10], 2.42 µM. In addition, the TGI in [1] is greater than 100 µM; in assay [3], 11.2 µM; in assay [4] it was greater than 100 µM; in assay [5], greater than 100 µM; in assay [6] it was 15.1 µM; in assay [7], 82.4 µM. The results for the total growth inhibition concentration (TGI) in assay [8], in assay [9] and in [10] were 46.8 µM, 83.7 µM and 10.9 µM, respectively.

For the compound `CC(=O)NC(CSC1=C2NC(=O)\C=C/C=C/C=C\C(C)C(O)CC(=O)/C(C)=C\CC(O)/C=C/C(C)C(O)C(C)C=C(C)C(=O)c3c(O)c(C)cc(c3C1=O)C2=O)C(=O)O` (stereo not given), the TGI in [1], in assay [2], in assay [3], in [5], in assay [6] and in [7] was greater than 100 µM throughout. Further, the TGI in assay [8], in [9] and in [10] was greater than 100 µM in each case.

On to `NC(=O)c1cccc(OCC(O)CO)c1` (stereo not given), for which the TGI in assay [1], in assay [2], in assay [3], in assay [5], in assay [6] and in assay [7] was greater than 100 µM in each case. For the same compound, the TGI in assay [8], in assay [9] and in [10] was greater than 100 µM each time.

With `Nc1ccc(COC(O)CN2CCCCC2)cc1[N+](=O)[O-]` (stereo not given), the TGI in assay [1], in assay [2], in assay [3], in assay [4], in assay [5] and in assay [6] was greater than 100 µM each time. The TGI in assay [7], in assay [9] and in [10] was greater than 100 µM throughout.

Take `COC(=O)/C(C#N)=C(\N)C(Cl)(Cl)Cl`: the TGI in assay [1] is 17.5 µM; in assay [2], 3.31 µM; in assay [3], 12.9 µM; in [4] it was 6.75 µM; in assay [5], 19.4 µM; in assay [7], 87.2 µM. Moreover, the results for the TGI in assay [8], in assay [9] and in [10] were 5.3 µM, greater than 100 µM and 16 µM, respectively.

As to `COc1cc2c(cc1OC)C1Cc3ccc(OC)c(OC)c3C[N+]1([O-])CC2` (stereo not given), the TGI in [1], in [2], in assay [3], in assay [4], in assay [5] and in [6] was greater than 100 µM each time. Moreover, the TGI in [7], in assay [9] and in assay [10] was greater than 100 µM throughout.

In the case of `COc1ccc(C(=O)CC2=Nc3nnc(CCCCCCCc4nnc5n4C(=O)C(CC(=O)c4ccc(OC)cc4)=N5)n3C2=O)cc1`, the TGI in [1], in assay [2], in assay [3], in [4], in assay [5] and in assay [6] was greater than 100 µM each time. Moreover, the TGI in assay [8], in assay [9] and in [10] was greater than 100 µM each time.

`COc1cc(C(C)c2cc3c(cc2OCCNC(=O)COc2cc4c(cc2C(C)c2cc(OC)c(OC)c(OC)c2)OCO4)OCO3)cc(OC)c1OC` (stereo not given): the TGI in assay [1], in assay [2], in assay [3], in assay [5], in assay [6] and in assay [7] was greater than 100 µM each time. The concentration for total growth inhibition (TGI) in assay [9] and in [10] was greater than 100 µM in each case.

In the case of `O=S(=O)(N=NC=C1c2ccccc2N(O)c2ccccc21)c1ccc(Cl)cc1`, the TGI in assay [1], in assay [2], in [3], in assay [4], in assay [5] and in assay [7] was greater than 100 µM throughout. The figures for the TGI in assay [8], in assay [9] and in assay [10] were greater than 100 µM, greater than 100 µM and 78.2 µM, respectively.

Regarding `CC(=O)OC12c3ccccc3-c3ccccc3C1C(C(=O)O)C2C(=O)O` (stereo not given), the TGI in [1], in assay [2], in [3], in assay [4], in [5] and in assay [6] was greater than 10 µM throughout. The TGI in assay [7], in assay [8] and in assay [9] was greater than 10 µM throughout.

For `O=C(C#Cc1ccccc1)C1=Cc2ccccc2OC1`, the TGI is 3.47 µM in [1]; 8.21 µM in assay [2]; 5.35 µM in assay [3]; 58.7 µM in [4]; 48.3 µM in assay [5]; 11.7 µM in assay [7]. Moreover, the TGI is 30.9 µM in assay [8], 29.6 µM in assay [9] and 13.3 µM in [10].

On to `O=C1C=Cc2c1ccc1ccccc21`, for which the GI50 in assay [1] is 11.1 µM; in assay [2], 18.9 µM; in [4], 4.2 µM; in [5], 20.8 µM; in assay [7] it was 72.9 µM; in assay [8] it was 30.2 µM. Moreover, the GI50 was 33 µM in [9] and 35.4 µM in [10]. In addition, the TGI in assay [1] is 33 µM; in assay [2] it was 60.3 µM; in assay [4], 21.9 µM; in assay [5], 63.6 µM; in assay [7], greater than 100 µM; in assay [8] it was greater than 100 µM. Moreover, the TGI in [9] and in [10] was greater than 100 µM each time.

For the compound `C=CCN1/C(=C2\SC(=S)N(c3ccc(C)cc3)C2=O)Sc2c1ncn(C)c2=O`, the TGI in [1], in assay [2], in assay [4], in assay [5], in [6] and in [7] was greater than 100 µM throughout. Also, the TGI in [8], in [9] and in assay [10] was greater than 100 µM in each case.

For `O=C(Nc1ccccc1-c1nn(CN2CCNCC2)c(=S)n(CN2CCNCC2)c1=O)C(F)(F)F`, the TGI in assay [1] worked out at 55.2 µM; in [2], 31.1 µM; in assay [3], 49.9 µM; in [5] it was 76.5 µM; in [6], 35.3 µM; in assay [7] it was 33.5 µM. The values for the TGI in [8], in assay [9] and in assay [10] were 51.4 µM, 48.1 µM and 52.9 µM, respectively.

With `CO[C@H]1C[C@](C)(O)Cc2cc3c(c(O)c21)C(=O)c1c(O)cc2c(c1C3=O)O[C@@H]1O[C@@]2(C)[C@H](O)[C@@H](N(C)C)[C@@H]1O`, the GI50 in assay [1] was 0.114 µM; in assay [3], 1.92 µM; in [4], 0.667 µM and 0.494 µM; in assay [5], 0.513 µM; in [8], 0.749 µM; in assay [9], 0.578 µM. Moreover, the TGI is 2.1 µM and 1.59 µM in assay [1]; 2.58 µM and 4.49 µM in assay [2]; 4.03 µM and 8.09 µM in assay [3]; 3.66 µM and 10.9 µM in [4]; 1.96 µM and 2.14 µM in [5]; 2.3 µM and 2.89 µM in assay [6]. The TGI was 5.09 µM and 5.82 µM in [7]; 2.45 µM and 3.67 µM in assay [8]; 5.95 µM and 7.5 µM in [9].

With `COC(=O)C1CC(OC(C)=O)C=C2C(=O)CCC21` (stereo not given), the TGI in [1] amounted to 55.8 µM; in [2], 50.2 µM; in [3], 31.2 µM; in assay [4], 57.7 µM; in assay [6], 50.6 µM; in assay [7] it was 79.9 µM. Moreover, the TGI was 69.9 µM in assay [8], 60.3 µM in [9] and 48 µM in assay [10].

Regarding `N#CC(C#N)=Cc1ccc(CP(=O)(O)O)cc1`, the TGI in [1], in assay [2], in assay [3], in assay [4], in [5] and in [6] was greater than 100 µM in each case. Besides, the TGI in assay [7], in [8] and in [9] was greater than 100 µM throughout.

On to `Cc1ccc(S(=O)(=O)C2=c3nc4ccccc4cc3=C3C(=O)c4ccccc4C(=O)C32)cc1` (stereo not given), for which the TGI in assay [1], in assay [2], in [3], in assay [4], in assay [6] and in assay [7] was greater than 100 µM throughout. Also, the TGI in assay [8], in assay [9] and in assay [10] was greater than 100 µM in each case.

Consider `O=C1C(=O)c2ccccc2C(O)=C1CCCc1ccc(C2CCCCC2)cc1`, for which the GI50 in assay [1] was 2.02 µM; in assay [2], 5.93 µM; in assay [3], 0.96 µM; in assay [4] it was 1.8 µM; in assay [5], 1.89 µM; in assay [6], 5.78 µM. Further, the GI50 in [8] is 10.9 µM; in assay [9], 5.66 µM; in [10] it was 5.17 µM. The TGI in assay [1] is 6.51 µM; in assay [2], 22.4 µM; in assay [3], 15.2 µM; in [4], 23.7 µM; in assay [5] it was 6.36 µM; in assay [6], 28.7 µM. The TGI in assay [8] is 59.7 µM; in [9], greater than 100 µM; in assay [10], 91 µM.

As for `CC(=O)NNc1nc(C)c(C(=O)/C=C/c2ccc(Cl)cc2)s1`, the TGI in [1], in [3], in [4], in assay [5], in assay [6] and in [7] was greater than 100 µM each time. Besides, the TGI in assay [8], in [9] and in assay [10] was greater than 100 µM throughout.

Turning to `COc1cc(C(=O)O[C@H](C(=O)NCCN(C)CCNC(=O)[C@@H](OC(=O)c2cc(OC)cc3c(C)cccc23)[C@]2(C)CO2)[C@]2(C)CO2)c2cccc(C)c2c1`, the GI50 in assay [1] was less than 0.01 µM; in assay [4], 0.246 µM; in assay [5] it was less than 0.0337 µM; in assay [6] it was less than 0.01 µM; in assay [7], 0.253 µM; in [8] it was 0.575 µM. In addition, the GI50 in assay [9] is 0.265 µM; in assay [10] it was 0.111 µM. In addition, the TGI is 0.0477 µM in assay [1]; 5.85 µM in assay [4]; 0.182 µM in [5]; 0.0504 µM in [6]; greater than 100 µM in assay [7]; 3.6 µM in assay [8]. The TGI turned out to be 1.18 µM in [9] and 1.02 µM in assay [10].

In the case of `CC1=NOC(=O)/C1=C/c1ccc([N+](=O)[O-])cc1`, the TGI in assay [1], in assay [2], in [3], in assay [5], in [6] and in assay [7] was greater than 100 µM throughout. The TGI in assay [8], in [9] and in assay [10] was greater than 100 µM in each case.
